Assay results taken from US9125388B2, “Biological control” (Isis Innovation Limited, priority 1999, dated 2015).

How the values were obtained:
[1] = tested on: Sxl^pe-tTA, tRE-Msl-2^Nopu on the third chromosome; test: Recombinant chromosome experiments: parents raised on supplement, progeny on normal food, adults by sex (25, 18 or 29° C.); assay type: in vivo, Drosophila melanogaster; settings: for Female progeny per daily vial / Female progeny Total / Male progeny Total: 25° C.; for Female progeny per daily vial: Day 1-12 on tetracycline-free food; for Female progeny Total / Male progeny Total: Day 1-12 total
Method: (§1) 40-45 young females and 20-25 young males raised at 25° C. upon food with the indicated tetracycline supplement were allowed to mate, then transferred to normal (tetracycline-free) food after 3-4 days. These flies were transferred to fresh vials of normal food every day for 12 days, then removed on the 13th day. All the vials were incubated at 25° C. while the progeny developed. The numbers of male and female progeny emerging as adults in each vial were recorded.
(§2) A standard range of additive concentrations were used in the following experiments (0.05-20 μg/ml). […] (=“not done”)
(§3) All the preceding experiments were performed at 25° C., the standard temperature for Drosophila culture. However, the insects in the wild would clearly be exposed to varying temperatures, so we investigated the extent to which the efficiency of the system is affected by temperature. As with the recombinant chromosome experiments, 40-45 young virgin females and 20-25 young males raised at 25° C. upon food with the indicated tetracycline supplement were allowed to mate, then transferred to normal (tetracycline-free) food after 3-4 days. These flies were transferred to fresh vials of normal food every day. The numbers of male and female progeny emerging as adults in each vial were recorded. These experiments were performed at either 18° C. or 29° C.

[2] = tested on: Sxl^pe-tTA, tRE-Ras64B^V12 on the third chromosome; test: as above; assay type: in vivo, Drosophila melanogaster; settings: for Female progeny Total / Male progeny Total: Day 1-12 total
Method: as §1, §2, §3

[3] = tested on: Sxl^pe-tTA, tRE-Ras64B^V12 on the X chromosome; test: as above; assay type: in vivo, Drosophila melanogaster; settings: for Female progeny / Male progeny: 18° C., then tetracycline-free food; for Female progeny per daily vial / Female progeny Total / Male progeny Total: 25° C.; for Female progeny per daily vial: Day 1-12 on tetracycline-free food; for Female progeny Total / Male progeny Total: Day 1-12 total; for Female progeny emerging as adults / Male progeny emerging as adults: 29° C.
Method: as §1, §2, §3

[4] = tested on: Hsp26 tTa, tRe Msl-1^Mpu on the 2nd chromosome; test: as above; assay type: in vivo, Drosophila melanogaster
Method: as §1, §2, §3

[5] = tested on: (Male) Sxlp^e tTa^(A) × tRe lacZ^(III) (Female); test: Reporter crosses at 25° C., embryos stained for lacZ
[6] = parents raised on Tet. 0.1 μg/ml
[7] = parents raised on Tet. 20 μg/ml
[8] = parents raised on Tet. 100 μg/ml
[9] = parents raised on Tet. 500 μg/ml
[10] = parents raised on Tet. 1000 μg/ml
[11] = parents raised on Tet. 2000 μg/ml
[12] = parents raised on tetracycline 0.1 μg/ml, 18° C.
[13] = parents raised on tetracycline 0.1 μg/ml, 29° C.
[14] = parents raised on tetracycline 1 μg/ml, 18° C.
[15] = parents raised on tetracycline 1 μg/ml, 29° C.
[16] = parents raised on tetracycline 5 μg/ml, 18° C.
[17] = parents raised on tetracycline 5 μg/ml, 29° C.
[18] = parents raised on Tet. 0.1 μg/ml, 25° C.
[19] = parents raised on Tet. 1 μg/ml, 25° C.
[20] = parents raised on Tet. 5 μg/ml, 25° C.
[21] = parents raised on Tet. 20 μg/ml, 25° C.
[22] = parents raised on Tet. 100 μg/ml, 25° C.
[23] = parents raised on Tet. 500 μg/ml, 25° C.
[24] = parents raised on Tet. 1000 μg/ml, 25° C.
[25] = parents raised on Tet. 2000 μg/ml, 25° C.
[26] = parents raised on Tetracycline 0.1 μg/ml
[27] = parents raised on Tetracycline 1 μg/ml
[28] = parents raised on Tetracycline 5 μg/ml
[29] = parents raised on tetracycline 0.1 μg/ml
[30] = parents raised on tetracycline 1 μg/ml
[31] = parents raised on tetracycline 5 μg/ml

Compound: CN(C)[C@@H]1C(O)=C(C(N)=O)C(=O)[C@@]2(O)C(O)=C3C(=O)c4c(O)cccc4[C@@](C)(O)[C@H]3C[C@@H]12 [Tetracycline, tetracycline]
- Female progeny per daily vial [1, 6]: 0
- Female progeny Total [1, 6]: 0
- Male progeny Total [1, 6]: 1267
- Female progeny per daily vial ([1]; parents raised on Tet. 1 μg/ml): 0
- Female progeny Total ([1]; parents raised on Tet. 1 μg/ml): 0
- Male progeny Total ([1]; parents raised on Tet. 1 μg/ml): 1171
- Female progeny per daily vial ([1]; parents raised on Tet. 5 μg/ml): 0
- Female progeny Total ([1]; parents raised on Tet. 5 μg/ml): 0
- Male progeny Total ([1]; parents raised on Tet. 5 μg/ml): 1165
- Female progeny per daily vial [1, 7]: 0
- Female progeny Total [1, 7]: 0
- Male progeny Total [1, 7]: 1127
- Female progeny per daily vial [1, 8]: 0
- Female progeny Total [1, 8]: 0
- Male progeny Total [1, 8]: 1168
- Female progeny per daily vial [1, 9]: 0
- Female progeny Total [1, 9]: 0
- Male progeny Total [1, 9]: 1137
- Female progeny Total [1, 10]: 3
- Male progeny Total [1, 10]: 1309
- Female progeny Total [1, 11]: 32
- Male progeny Total [1, 11]: 1325
- Female progeny emerging as adults [1, 12]: 2
- Male progeny emerging as adults [1, 12]: 973
- Female progeny emerging as adults [1, 13]: 0
- Male progeny emerging as adults [1, 13]: 749
- Female progeny emerging as adults [1, 14]: 9
- Male progeny emerging as adults [1, 14]: 985
- Female progeny emerging as adults [1, 15]: 0
- Male progeny emerging as adults [1, 15]: 737
- Female progeny emerging as adults [1, 16]: 5
- Male progeny emerging as adults [1, 16]: 983
- Female progeny emerging as adults [1, 17]: 0
- Male progeny emerging as adults [1, 17]: 718
- Female progeny per daily vial ([2]; parents raised on Tet. 0.1 μg/ml, 25° C., Day 1-12 on tetracycline-free food): 0
- Female progeny Total [2, 18]: 0
- Male progeny Total [2, 18]: 1541
- Female progeny per daily vial ([2]; parents raised on Tet. 1 μg/ml, 25° C., Day 1-12 on tetracycline-free food): 0
- Female progeny Total [2, 19]: 0
- Male progeny Total [2, 19]: 1441
- Female progeny per daily vial ([2]; parents raised on Tet. 5 μg/ml, 25° C., Day 1-12 on tetracycline-free food): 0
- Female progeny Total [2, 20]: 0
- Male progeny Total [2, 20]: 1421
- Female progeny per daily vial ([2]; parents raised on Tet. 20 μg/ml, 25° C., Day 1-12 on tetracycline-free food): 0
- Female progeny Total [2, 21]: 0
- Male progeny Total [2, 21]: 1487
- Female progeny per daily vial ([2]; parents raised on Tet. 100 μg/ml, 25° C., Day 1-12 on tetracycline-free food): 0
- Female progeny Total [2, 22]: 0
- Male progeny Total [2, 22]: 1416
- Female progeny Total [2, 23]: 72
- Male progeny Total [2, 23]: 1388
- Female progeny Total [2, 24]: 87
- Male progeny Total [2, 24]: 1416
- Male progeny per daily vial ([2]; parents raised on Tet. 2000 μg/ml, 25° C., Day 1-12 on tetracycline-free food, listed as Tet.): 123
- Female progeny Total [2, 25]: 161
- Male progeny Total [2, 25]: 1438
- Female progeny emerging as adults [2, 12]: 6
- Male progeny emerging as adults [2, 12]: 1065
- Female progeny emerging as adults [2, 13]: 0
- Male progeny emerging as adults [2, 13]: 781
- Female progeny emerging as adults [2, 14]: 9
- Male progeny emerging as adults [2, 14]: 1124
- Female progeny emerging as adults [2, 15]: 0
- Male progeny emerging as adults [2, 15]: 749
- Female progeny emerging as adults [2, 16]: 7
- Male progeny emerging as adults [2, 16]: 989
- Female progeny emerging as adults [2, 17]: 0
- Male progeny emerging as adults [2, 17]: 741
- Female progeny [3, 26]: 8
- Male progeny [3, 26]: 982
- Female progeny [3, 27]: 10
- Male progeny [3, 27]: 912
- Female progeny [3, 28]: 7
- Male progeny [3, 28]: 871
- Female progeny per daily vial [3, 6]: 0
- Female progeny Total [3, 6]: 0
- Male progeny Total [3, 6]: 1262
- Female progeny per daily vial ([3]; parents raised on Tet. 1 μg/ml): 0
- Female progeny Total ([3]; parents raised on Tet. 1 μg/ml): 0
- Male progeny Total ([3]; parents raised on Tet. 1 μg/ml): 1399
- Female progeny per daily vial ([3]; parents raised on Tet. 5 μg/ml): 0
- Female progeny Total ([3]; parents raised on Tet. 5 μg/ml): 0
- Male progeny Total ([3]; parents raised on Tet. 5 μg/ml): 1359
- Female progeny per daily vial [3, 7]: 0
- Female progeny Total [3, 7]: 0
- Male progeny Total [3, 7]: 1398
- Female progeny per daily vial [3, 8]: 0
- Female progeny Total [3, 8]: 0
- Male progeny Total [3, 8]: 1469
- Female progeny Total [3, 9]: 25
- Male progeny Total [3, 9]: 1478
- Female progeny Total [3, 10]: 49
- Male progeny Total [3, 10]: 1349
- Female progeny Total [3, 11]: 92
- Male progeny Total [3, 11]: 1439
- Female progeny emerging as adults [3, 29]: 0
- Male progeny emerging as adults [3, 29]: 716
- Female progeny emerging as adults [3, 30]: 0
- Male progeny emerging as adults [3, 30]: 711
- Female progeny emerging as adults [3, 31]: 0
- Male progeny emerging as adults [3, 31]: 715
- Female progeny emerging as adults [4, 12]: 6
- Male progeny emerging as adults [4, 12]: 628
- Female progeny emerging as adults [4, 13]: 0
- Male progeny emerging as adults [4, 13]: 733
- Female progeny emerging as adults [4, 14]: 3
- Male progeny emerging as adults [4, 14]: 614
- Female progeny emerging as adults [4, 15]: 0
- Male progeny emerging as adults [4, 15]: 776
- Female progeny emerging as adults [4, 16]: 5
- Male progeny emerging as adults [4, 16]: 712
- Female progeny emerging as adults [4, 17]: 0
- Male progeny emerging as adults [4, 17]: 728
- LacZ negative Total ([5]; Tetracycline 0.1 μg/ml in food): 518
- LacZ positive Total ([5]; Tetracycline 0.1 μg/ml in food): 0
- LacZ negative Total ([5]; Tetracycline 1 μg/ml in food): 707
- LacZ positive Total ([5]; Tetracycline 1 μg/ml in food): 0
- LacZ negative Total ([5]; Tetracycline 5 μg/ml in food): 702
- LacZ positive Total ([5]; Tetracycline 5 μg/ml in food): 0
